Laboratory results reported in patent US20260102460A1, “NOVEL COMBINATIONS OF ANTIBIOTICS AND NON-ANTIBIOTIC DRUGS EFFECTIVE IN VIVO AGAINST GRAM-POSITIVE BACTERIA, IN PARTICULAR METHICILLIN-RESISTANT S. AUREUS (MRSA)” (EUROPEAN MOLECULAR BIOLOGY LABORATORY, priority 2022, published 2026).
“Also recorded” adds a separate entry of the source.

Columns and labels:
[1] = system: S. aureus DSM 20231; assay: Adjuvant (extended non-antibiotic) combination screen; assay type: cell-based, Staphylococcus aureus; conditions: S. aureus DSM 20231; original and extended non-antibiotic screen (FIG. 4d); 4×4 dose matrix
Experimental: (§1) MICs were tested in all strains for the main screen. Drugs were two-fold serially diluted in 11 concentrations, and 32 no-drug control wells were included in each plate. Experiments were conducted in 384-well plates (ref. 781271 by Greiner BioOne), with a total volume of 30 μl for S. aureus and B. subtilis and 55 μl for S. pneumoniae. Volumes were optimized for each strain to achieve good dynamic range for growth and minimize risk of cross-contamination between wells. Plates were inoculated with a starting optical density at 595 nm (OD595 nm) of 0.01 from an overnight culture. All liquid handling was performed using a Biomek FX liquid handler (Beckman Coulter). Plates were sealed with breathable membranes and incubated at 37° C. OD595 nm was measured every 30 minutes for 14 hours. The MIC was considered as the first concentration at which growth was inhibited. Experiments were conducted in biological duplicates. For the adjuvant screen, antibiotics were tested in S. aureus DSM 20231 at the same concentrations as for the main screen. Non-antibiotics concentrations were selected to fall within therapeutic ranges.
(§2) 62 drugs, hereafter designated as recipients, were arrayed in 384-well plates (ref. 781271 by Greiner BioOne) in three two-fold serial dilutions and two technical replicates. Concentrations were selected according to MICs, with the highest concentration corresponding to the MIC, and the intermediate and lowest concentration corresponding to ½ and ¼ MIC, respectively. Plates were kept frozen and defrosted upon each experimental run, when the same 62 drugs and in the same three concentrations were added as donor drugs (one drug at one concentration for each recipient plate). A few drugs were screened only as donors: the combinations co-amoxiclav and cotrimoxazole in B. subtilis and S. aureus DSM 20231; co-amoxiclav, clavulanic acid, pseudomonic acid and cefuroxime in S. aureus Newman. All donor drugs were tested in two biological replicates. Control wells were included in each plate (six no-drug wells, three plain medium wells and three wells containing only the donor drug). After the addition of donor drugs, plates were inoculated with cells. Handling, inoculation, growth conditions, plate incubation and OD595 nm measurements were performed as for the MIC determination.
For the adjuvant screen, 44 non-antibiotic drugs were tested against the same recipient drugs of the main screen for S. aureus DSM 20231.
The inventors selected 44 drugs to include pharmaceuticals that can be co-administered with antibiotics in S. aureus infections or non-antibiotics with previously reported antibacterial activity against S. aureus. […] Interactions were scored and benchmarked as for the main screen (Methods).

[2] = system: S. aureus (two strains); assay: High-throughput screen of drug combinations (4×4 broth microdilution checkerboard, Bliss scores); assay type: cell-based, Staphylococcus aureus; conditions: for drug-drug interaction (synergy / antagonism, Bliss model): S. aureus Newman and DSM 20231, fitness from OD595nm at 8 h, synergy = first quartile of Bliss scores <−0.1, antagonism = third quartile >0.1, FDR <0.05
Experimental: as §1, §2

[3] = system: multi-drug resistant E. coli isolates; conditions: vanillin paired with spectinomycin; Gram-negative pathogenic and multi-drug resistant E. coli isolates; cited from earlier work
[4] = system: S. aureus Newman dltABCD and tagG IPTG-inducible knockdown mutants; assay: Gentamicin and nisin MIC in dltABCD and tagG knockdown mutants; assay type: cell-based, Staphylococcus aureus; conditions: dltABCD operon and tagG knockdown, 500 μM IPTG, versus control strain MM76
Text: A two-plasmid CRISPR interference system was used to knock down gene expression of selected genes in S. aureus Newman. In these strains, dcas is expressed from an IPTG-inducible promoter on plasmid pLOW, while sgRNAs are expressed from a constitute promoter on a plasmid derived from pCG248. The sgRNA-target sequences were […] (SEQ ID NO. 1) for dltABCD and […] (SEQ ID NO. 2) for tagG, and […] (SEQ ID NO. 3) for the non-target control MM76.
For gentamicin and nisin MIC measurements, dltABCD and tagG IPTG-inducible knockdown mutants (Methods) were grown in two-fold dilutions of nisin and gentamicin, in presence of erythromycin (5 μg/ml) and chloramphenicol (10 μg/ml) for plasmid maintenance. IPTG (500 μM) was used to achieve maximal knockdown of the gene targeted. The parent S. aureus Newman and the control strain MM76 (Methods) were included in all experiments, and experiments were conducted in four biological replicates, in 384-well plates (ref. 781271 by Greiner BioOne). For each plate, the inventors identified the time point where the control strain MM76 (in presence of erythromycin, chloramphenicol and IPTG at the above-mentioned concentrations) reached plateau, defined as the first time point before no increase was detected in log 10 (OD595 nm) values of two consecutive time points. […]

[5] = system: MDR S. aureus isolates; conditions: Mueller-Hinton broth (MHB), 22 h; cited from earlier work

For `CC(=O)Oc1ccccc1C(=O)O` [acetylsalicylic acid], the “interactions between non-antibiotic drug and antibiotics (synergy / antagonism, Bliss model)” value [1] was “synergy with cefuroxime; also recorded: antagonisms with ciprofloxacin, oxacillin and azithromycin”.

With `O=C(O)[C@H]1/C(=C/CO)O[C@@H]2CC(=O)N21` [clavulanic acid] the “drug-drug interaction (synergy / antagonism, Bliss model)” value [2] was “a number of synergies with other drugs”.

In the case of `CCN(CC)CCOc1ccc(C(=C(Cl)c2ccccc2)c2ccccc2)cc1` [clomifene], the “interactions between non-antibiotic drug and antibiotics (synergy / antagonism, Bliss model)” value [1] is reported as “synergies with cell-wall acting drugs; also recorded: antagonism with streptomycin”.

For `C[C@@H]1O[C@@H]1P(=O)(O)O` [fosfomycin], the “drug-drug interaction (synergy / antagonism, Bliss model)” value [2] was “strongly synergized with a diverse range of protein-synthesis inhibitors (lincosamides, oxazolidinones, streptomycin); also recorded: synergized with almost all classes of translation inhibitors, including macrolides, tetracyclines and spectinomycin”.

With `CN(C)C(=O)C(CCN1CCC(O)(c2ccc(Cl)cc2)CC1)(c1ccccc1)c1ccccc1` [loperamide] the “drug-drug interaction (synergy / antagonism, Bliss model)” value [2] was “broad antagonism with macrolides” and the “rank by number of interactions with antibiotics” value ([2]; the inventors' screen) was “highest number of interactions with antibiotics”.

In the case of `COc1cc(Cc2cnc(N)nc2N)cc(OC)c1OC` [trimethoprim], the “drug-drug interaction (synergy / antagonism, Bliss model)” value [2] is reported as “a number of synergies with other drugs”.

In the case of `COc1cc(C=O)ccc1O` [vanillin], the “inhibitory effect on growth” value [3] is listed as “surprisingly strong inhibitory effect on the growth”.

In the case of gentamicin, the “change of MIC in CRISPRi knockdown mutants” value [4] is reported as “decrease”.

In the case of nisin, the “change of MIC in CRISPRi knockdown mutants” value [4] is reported as “decrease”.

In the case of teicoplanin, the “killing by single drug” value [5] is given as “complete killing”.
